The supplement of paper PMC10883282
± gives the standard deviation of the averaged measurements.

What was measured:
Test in all cases: relative viability vs DMSO control (72 h) (fraction); higher = more viable cells
A204 = test system: A204
Method in brief: (§1)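 Sarcoma cell lines were seeded in 384-well plates at densities chosen for 80–90% confluence, then 24 h later given 2.5 µl of serially diluted compound drawn from source plates spanning 10 mM to 0.0002 mM. They were held 72 h at 37 °C, 5% CO2, with 0.1% DMSO vehicle and a 5 µM positive control included. Relative viability was read with ATPLite as percent growth and averaged over up to triplicate wells. Rescaling placed full at 1 and none at 0.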

G401 = test system: G401
Method in brief: as §1

HS729 = test system: HS729
Method in brief: as §1

KHOS-240S = test system: KHOS-240S
Method in brief: as §1

MES-SA = test system: MES-SA
Method in brief: as §1

SK-ES-1 = test system: SK-ES-1
Method in brief: as §1

SK-LMS-1 = test system: SK-LMS-1
Method in brief: as §1

SW1353 = test system: SW1353
Method in brief: as §1

SW684 = test system: SW684
Method in brief: as §1

SW872 = test system: SW872
Method in brief: as §1

SW982 = test system: SW982
Method in brief: as §1

SYO-1 = test system: SYO-1
Method in brief: as §1

Cc1cn(-c2cc(NC(=O)c3ccc(C)c(Nc4nccc(-c5cccnc5)n4)c3)cc(C(F)(F)F)c2)cn1 [Nilotinib]
Details | relative viability
A204, 0.00017 µM | 1 ± 0.048
A204, 0.00051 µM | 0.979 ± 0.045
A204, 0.00152 µM | 1.03 ± 0.054
A204, 0.00457 µM | 1.04 ± 0.035
A204, 0.01372 µM | 1.05 ± 0.034
A204, 0.04115 µM | 1.074 ± 0.0099
A204, 0.1235 µM | 1.01 ± 0.071
A204, 0.3704 µM | 0.662 ± 0.043
A204, 1.111 µM | 0.421 ± 0.019
A204, 3.333 µM | 0.34 ± 0.042
A204, 10 µM | 0.345 ± 0.022
G401, 0.00017 µM | 0.944 ± 0.034
G401, 0.00051 µM | 0.963 ± 0.036
G401, 0.00152 µM | 0.968 ± 0.024
G401, 0.00457 µM | 0.963 ± 0.035
G401, 0.01372 µM | 0.979 ± 0.021
G401, 0.04115 µM | 0.982 ± 0.032
G401, 0.1235 µM | 0.995 ± 0.013
G401, 0.3704 µM | 0.923 ± 0.025
G401, 1.111 µM | 0.865 ± 0.038
G401, 3.333 µM | 0.795 ± 0.021
G401, 10 µM | 0.737 ± 0.063
HS729, 0.00017 µM | 0.914 ± 0.044
HS729, 0.00051 µM | 0.914 ± 0.022
HS729, 0.00152 µM | 0.92 ± 0.024
HS729, 0.00457 µM | 0.915 ± 0.015
HS729, 0.01372 µM | 0.922 ± 0.054
HS729, 0.04115 µM | 0.907 ± 0.079
HS729, 0.1235 µM | 0.848 ± 0.059
HS729, 0.3704 µM | 0.792 ± 0.034
HS729, 1.111 µM | 0.766 ± 0.023
HS729, 3.333 µM | 0.656 ± 0.07
HS729, 10 µM | 0.737 ± 0.019
KHOS-240S, 0.00017 µM | 1.04 ± 0.055
KHOS-240S, 0.00051 µM | 1.02 ± 0.035
KHOS-240S, 0.00152 µM | 1.03 ± 0.063
KHOS-240S, 0.00457 µM | 1.02 ± 0.05
KHOS-240S, 0.01372 µM | 1.03 ± 0.054
KHOS-240S, 0.04115 µM | 1.01 ± 0.038
KHOS-240S, 0.1235 µM | 0.999 ± 0.046
KHOS-240S, 0.3704 µM | 0.998 ± 0.069
KHOS-240S, 1.111 µM | 0.907 ± 0.032
KHOS-240S, 3.333 µM | 0.847 ± 0.011
KHOS-240S, 10 µM | 0.658 ± 0.026
MES-SA, 0.00017 µM | 0.882 ± 0.011
MES-SA, 0.00051 µM | 0.867 ± 0.018
MES-SA, 0.00152 µM | 0.874 ± 0.015
MES-SA, 0.00457 µM | 0.875 ± 0.029
MES-SA, 0.01372 µM | 0.88 ± 0.021
MES-SA, 0.04115 µM | 0.94 ± 0.015
MES-SA, 0.1235 µM | 0.938 ± 0.045
MES-SA, 0.3704 µM | 0.93 ± 0.036
MES-SA, 1.111 µM | 0.891 ± 0.065
MES-SA, 3.333 µM | 0.659 ± 0.021
MES-SA, 10 µM | 0.594 ± 0.019
SK-ES-1, 0.00017 µM | 0.966 ± 0.023
SK-ES-1, 0.00051 µM | 0.958 ± 0.051
SK-ES-1, 0.00152 µM | 0.951 ± 0.014
SK-ES-1, 0.00457 µM | 0.919 ± 0.039
SK-ES-1, 0.01372 µM | 0.954 ± 0.042
SK-ES-1, 0.04115 µM | 0.975 ± 0.017
SK-ES-1, 0.1235 µM | 0.997 ± 0.059
SK-ES-1, 0.3704 µM | 0.908 ± 0.025
SK-ES-1, 1.111 µM | 0.788 ± 0.037
SK-ES-1, 3.333 µM | 0.55 ± 0.0074
SK-ES-1, 10 µM | 0.484 ± 0.03
SK-LMS-1, 0.00017 µM | 0.953 ± 0.033
SK-LMS-1, 0.00051 µM | 0.983 ± 0.033
SK-LMS-1, 0.00152 µM | 1.01 ± 0.028
SK-LMS-1, 0.00457 µM | 1.03 ± 0.1
SK-LMS-1, 0.01372 µM | 1.02 ± 0.068
SK-LMS-1, 0.04115 µM | 1.05 ± 0.024
SK-LMS-1, 0.1235 µM | 1.11 ± 0.061
SK-LMS-1, 0.3704 µM | 1.12 ± 0.063
SK-LMS-1, 1.111 µM | 1.16 ± 0.038
SK-LMS-1, 3.333 µM | 0.978 ± 0.045
SK-LMS-1, 10 µM | 0.965 ± 0.027
SW684, 0.00017 µM | 1.04 ± 0.034
SW684, 0.00051 µM | 1.07 ± 0.037
SW684, 0.00152 µM | 1.09 ± 0.017
SW684, 0.00457 µM | 1.07 ± 0.028
SW684, 0.01372 µM | 1.07 ± 0.023
SW684, 0.04115 µM | 1.12 ± 0.044
SW684, 0.1235 µM | 1.21 ± 0.054
SW684, 0.3704 µM | 1.32 ± 0.024
SW684, 1.111 µM | 1.26 ± 0.067
SW684, 3.333 µM | 1.24 ± 0.085
SW684, 10 µM | 1.15 ± 0.046
SW872, 0.00017 µM | 0.959 ± 0.019
SW872, 0.00051 µM | 0.91 ± 0.05
SW872, 0.00152 µM | 0.924 ± 0.013
SW872, 0.00457 µM | 0.926 ± 0.049
SW872, 0.01372 µM | 0.948 ± 0.013
SW872, 0.04115 µM | 0.971 ± 0.026
SW872, 0.1235 µM | 1.01 ± 0.02
SW872, 0.3704 µM | 0.999 ± 0.048
SW872, 1.111 µM | 0.94 ± 0.018
SW872, 3.333 µM | 0.796 ± 0.022
SW872, 10 µM | 0.766 ± 0.029
SW982, 0.00017 µM | 0.977 ± 0.066
SW982, 0.00051 µM | 0.983 ± 0.061
SW982, 0.00152 µM | 0.957 ± 0.062
SW982, 0.00457 µM | 0.974 ± 0.075
SW982, 0.01372 µM | 0.988 ± 0.057
SW982, 0.04115 µM | 0.994 ± 0.036
SW982, 0.1235 µM | 0.987 ± 0.061
SW982, 0.3704 µM | 0.998 ± 0.023
SW982, 1.111 µM | 0.973 ± 0.033
SW982, 3.333 µM | 0.902 ± 0.024
SW982, 10 µM | 0.727 ± 0.066
SW1353, 0.00017 µM | 0.933 ± 0.028
SW1353, 0.00051 µM | 0.951 ± 0.043
SW1353, 0.00152 µM | 0.935 ± 0.034
SW1353, 0.00457 µM | 0.967 ± 0.065
SW1353, 0.01372 µM | 0.969 ± 0.065
SW1353, 0.04115 µM | 1.01 ± 0.033
SW1353, 0.1235 µM | 1.05 ± 0.011
SW1353, 0.3704 µM | 1.09 ± 0.07
SW1353, 1.111 µM | 1.08 ± 0.049
SW1353, 3.333 µM | 0.994 ± 0.045
SW1353, 10 µM | 0.846 ± 0.035
SYO-1, 0.00017 µM | 0.904 ± 0.012
SYO-1, 0.00051 µM | 0.868 ± 0.06
SYO-1, 0.00152 µM | 0.899 ± 0.033
SYO-1, 0.00457 µM | 0.865 ± 0.054
SYO-1, 0.01372 µM | 0.818 ± 0.095
SYO-1, 0.04115 µM | 0.84 ± 0.094
SYO-1, 0.1235 µM | 0.802 ± 0.061
SYO-1, 0.3704 µM | 0.6513 ± 0.0029
SYO-1, 1.111 µM | 0.598 ± 0.025
SYO-1, 3.333 µM | 0.522 ± 0.046
SYO-1, 10 µM | 0.446 ± 0.018
